Patent EP0745595A1, “3-(3-Aryloxyphenyl)-1-(substituted methyl)-s-triazine-2,4,6-oxo or thiotrione herbicidal agents” (American Cyanamid Company, priority 1995, dated 1996)

Key:
Type in all cases: in vivo
CASSIA OBTUSIFOLIA, L. = assay: Preemergence herbicidal evaluation, CASOB (Sicklepod); details: Rate 0.500 kg/ha, rated four to five weeks after treatment
From the text: (§1) Results of herbicide evaluation are expressed on a rating scale (0-9). The scale is based upon a visual observation of plant stand, vigor, malformation, size, chlorosis and overall plant appearance as compared with a control.
(§2) The preemergence herbicidal activity of the test compounds of the present invention is exemplified by the following tests in which the seeds of a variety of monocotyledonous and dicotyledonous plants are separately mixed with potting soil and planted on top of approximately one inch of soil in separate pint cups. […] The treated cups are then placed on greenhouse benches, watered and cared for in accordance with conventional greenhouse procedures. From four to five weeks after treatment, the tests are terminated and each cup is examined and rated according to the rating system provided in Example 40.
(§3) The compounds evaluated are reported by compound number given in Example 40.

GALIUM APARINE [1] = assay: Preemergence herbicidal evaluation, GALAP (Galium); details: Rate 0.500 kg/ha, rated four to five weeks after treatment
From the text: as §1, §2, §3

[2] = test system: CYPERUS SEROTINUS, ROTTB.; assay: Preemergence weed control under flooded paddy conditions, CYPSE (Flatsedge); details: preemergence, 3-4 weeks after treatment
Outline: (§4)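 Visual 0-9 rating against untreated control, covering stand, vigor, malformation, size and chlorosis, scored three to four weeks post-treatment in a greenhouse. Application was into 1.5-3 cm flood water over silt loam sown at 0.5 cm. The 50/50 v/v aqueous/acetone doses were about 0.5, 0.25, 0.125 and 0.063 kg/ha.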

SAGITTARIA PYGMAEA, L. = assay: Preemergence weed control under flooded paddy conditions, SAGPY (Arrowhead (Pygmaea)); details: preemergence, 3-4 weeks after treatment
Outline: as §4

[3] = test system: ORYZA SATIVA, L. TEBONNET; assay: Rice tolerance to post-transplant applications under flooded paddy conditions, ORYSAT (Rice, Tebonnet); details: post-transplant rice, 3-4 weeks after treatment
Outline: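 Rated on a visual 0–9 scale against untreated plants 3–4 weeks after application, rice (cv. Tebonnet) tolerance was tested by applying compounds (approx. 0.5–0.063 kg/ha, acetone/water 50/50) to flooded soil three days post-transplant, water kept 1.5–3 cm deep.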

GALIUM APARINE [4] = assay: Postemergence herbicidal evaluation, GALAP (Galium); details: rated four to five weeks after treatment, averaged
Outline: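 In this postemergence greenhouse test, two-week-old Galium aparine seedlings grown in jiffy flats received a 40 psi spray of compound in acetone/water (50/50) with 0.5% TWEEN®20 surfactant. After four to five weeks, stand, vigor, malformation, size, chlorosis and overall appearance were compared with untreated controls on a 0-9 scale, averaging multiple tests.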

[5] = test system: ECHINOCHLOA CRUS-GALLI, (L) BEAU; assay: Postemergence herbicidal evaluation, ECHCG (Barnyardgrass); details: rated four to five weeks after treatment, averaged
Method: In the tests, seedling plants are grown in jiffy flats for about two weeks. The test compounds are dispersed in 50/50 acetone/water mixtures containing 0.5% TWEEN®20, a polyoxyethylene sorbitan monolaurate surfactant of Atlas Chemical Industries, in sufficient quantities to provide the equivalent of about 0.125 kg to 0.500 kg per hectare of active compound when applied to the plants through a spray nozzle operating at 40 psi for a predetermined time. After spraying, the plants are placed on greenhouse benches and are cared for in the usual manner, commensurate with conventional greenhouse practices. From four to five weeks after treatment, the seedling plants are examined and rated according to the rating system set forth below. Where more than one test is involved for a given compound, the data are averaged.
Plant species employed in these evaluations are reported by header abbreviation, common name and scientific name.
as §1

[6] = test system: SETARIA VIRIDIS, (L) BEAU; assay: Postemergence herbicidal evaluation, SETVI (Foxtail, Green); details: rated four to five weeks after treatment, averaged
Outline: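 Postemergence foliar spray at approximately 0.125–0.500 kg/ha onto two-week seedlings; greenhouse hold, then 0–9 visual injury rating after 4–5 weeks.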

[7] = test system: ECHINOCHLOA ORYZOIDES (ARD.)FRITSCH; assay: Preemergence weed control under flooded paddy conditions, ECHORC (Watergrass (Calif.)); details: 0.500 kg/ha, preemergence, 3-4 weeks after treatment
Outline: as §4

CYPERUS IRIA = assay: Preemergence weed control under flooded paddy conditions, CYPIR (Rice Flatsedge); details: 0.500 kg/ha, preemergence, 3-4 weeks after treatment
Method: as §1
Preemergence herbicidal activity under flooded paddy conditions is determined as follows: plant seeds or propagating organs are planted in the top 0.5 cm of silt loam soil in 32 oz. plastic containers with a diameter of 10.5 cm and no drainage holes. Water is added to these containers and maintained at 1.5 to 3 cm above the soil surface for the duration of the experiment. […] The treated containers are placed on greenhouse benches and cared for according to normal greenhouse procedures.- Three to four weeks after treatment the test is terminated and each container is examined and herbicidal effect rated according to the rating system provided in Example 40. The compounds evaluated are reported by compound number given in Example 40.
Plant species employed in this example are reported by header abbreviation, common name and scientific name.

[…], PRESL. = Preemergence weed control under flooded paddy conditions, MOOVA (Monochoria); details: 0.500 kg/ha, preemergence, 3-4 weeks after treatment
Outline: as §4

COC(=O)Cn1c(=O)n(C)c(=O)n(-c2cc(Oc3cccc(Cl)c3Cl)ccc2[N+](=O)[O-])c1=O [Compound 22, Methyl 3-[5-(2,3-dichlorophenoxy)-2-nitrophenyl]tetrahydro-5-methyl-2,4,6-trioxo-s-triazine-1(2H)-acetate]
CASOB herbicidal rating (CASSIA OBTUSIFOLIA, L.): 3.0
GALAP herbicidal rating (GALIUM APARINE [1]): 0.0
Herbicidal effect rating, CYPSE ([2]; 0.063 kg/ha): 0.0
Herbicidal effect rating, CYPSE ([2]; 0.125 kg/ha): 0.0
Herbicidal effect rating, CYPSE ([2]; 0.250 kg/ha): 0.0
Herbicidal effect rating, CYPSE ([2]; 0.500 kg/ha): 0.0
Herbicidal effect rating, SAGPY (SAGITTARIA PYGMAEA, L.; 0.063 kg/ha): 0.0
Herbicidal effect rating, SAGPY (SAGITTARIA PYGMAEA, L.; 0.125 kg/ha): 0.0
Herbicidal effect rating, SAGPY (SAGITTARIA PYGMAEA, L.; 0.250 kg/ha): 0.0
Herbicidal effect rating, SAGPY (SAGITTARIA PYGMAEA, L.; 0.500 kg/ha): 0.0
Herbicidal effect rating, ORYSAT ([3]; 0.063 kg/ha): 0.0
Herbicidal effect rating, ORYSAT ([3]; 0.125 kg/ha): 0.0
Herbicidal effect rating, ORYSAT ([3]; 0.250 kg/ha): 0.0
Herbicidal effect rating, ORYSAT ([3]; 0.500 kg/ha): 2.0

COC(=O)Cn1c(=O)n(C)c(=O)n(-c2cc(Oc3ccc([N+](=O)[O-])cc3F)ccc2[N+](=O)[O-])c1=O [Compound 24, Methyl 3-[5-(2-fluoro-4-nitrophenoxy)-2-nitrophenyl]tetrahydro-5-methyl-2,4,6-trioxo-s-triazine-1(2H)-acetate]
GALAP, herbicide rating (0-9) (GALIUM APARINE [4]; Rate 0.125 kg/ha): 2.0
GALAP, herbicide rating (0-9) (GALIUM APARINE [4]; Rate 0.250 kg/ha): 2.0
GALAP, herbicide rating (0-9) (GALIUM APARINE [4]; Rate 0.500 kg/ha): 2.0
ECHCG, herbicide rating (0-9) ([5]; Rate 0.125 kg/ha): 0.0
ECHCG, herbicide rating (0-9) ([5]; Rate 0.250 kg/ha): 0.0
ECHCG, herbicide rating (0-9) ([5]; Rate 0.500 kg/ha): 0.0
SETVI, herbicide rating (0-9) ([6]; Rate 0.125 kg/ha): 0.0
SETVI, herbicide rating (0-9) ([6]; Rate 0.250 kg/ha): 0.0
SETVI, herbicide rating (0-9) ([6]; Rate 0.500 kg/ha): 0.0
CASOB herbicidal rating (CASSIA OBTUSIFOLIA, L.): 0.0
GALAP herbicidal rating (GALIUM APARINE [1]): 0.0
Herbicidal effect rating, ECHORC [7]: 0.0
Herbicidal effect rating, CYPIR (CYPERUS IRIA): 0.0
Herbicidal effect rating, CYPSE ([2]; 0.500 kg/ha): 0.0
Herbicidal effect rating, MOOVA ([…], PRESL.): 0.0
Herbicidal effect rating, SAGPY (SAGITTARIA PYGMAEA, L.; 0.500 kg/ha): 0.0
Herbicidal effect rating, ORYSAT ([3]; 0.500 kg/ha): 0.0

COC(=O)Cn1c(=O)n(C)c(=O)n(-c2cc(Oc3ccc(F)c(F)c3F)ccc2[N+](=O)[O-])c1=O [Compound 27, Methyl tetrahydro-3-methyl-5-[2-nitro-5-(2,3,4-trifluorophenoxy)phenyl]-2,4,6-trioxo-s-triazine-1(2H)-acetate]
CASOB herbicidal rating (CASSIA OBTUSIFOLIA, L.): 0.0
GALAP herbicidal rating (GALIUM APARINE [1]): 8.0
Herbicidal effect rating, CYPSE ([2]; 0.063 kg/ha): 0.0
Herbicidal effect rating, CYPSE ([2]; 0.125 kg/ha): 0.0
Herbicidal effect rating, CYPSE ([2]; 0.250 kg/ha): 0.0
Herbicidal effect rating, CYPSE ([2]; 0.500 kg/ha): 0.0
Herbicidal effect rating, SAGPY (SAGITTARIA PYGMAEA, L.; 0.063 kg/ha): 0.0
Herbicidal effect rating, SAGPY (SAGITTARIA PYGMAEA, L.; 0.125 kg/ha): 0.0
Herbicidal effect rating, SAGPY (SAGITTARIA PYGMAEA, L.; 0.250 kg/ha): 0.0
Herbicidal effect rating, SAGPY (SAGITTARIA PYGMAEA, L.; 0.500 kg/ha): 0.0
Herbicidal effect rating, ORYSAT ([3]; 0.063 kg/ha): 0.0
Herbicidal effect rating, ORYSAT ([3]; 0.125 kg/ha): 1.0
Herbicidal effect rating, ORYSAT ([3]; 0.250 kg/ha): 2.0
Herbicidal effect rating, ORYSAT ([3]; 0.500 kg/ha): 1.5
